Several values for one entry are separate records, joined by “and”; a condition that tells them apart may be missing. Equal values may be shown once.
Key:
Alternaria solani = assay: Alternaria test (tomato)/protective; format: in vivo; details: in vivo
In short: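 Young tomato plants were sprayed with compound (DMF/emulsifier formulation diluted in water) and inoculated with A. solani spores 1 day later. Plants were kept 24 h at 100% RH and 22 °C, then at 96% RH and 20 °C. Efficacy was scored 7 days post-inoculation, where 0% equals untreated control and 100% means no infection.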

Botrytis cinerea = assay: Botrytis test (bean)/protective; format: in vivo; details: 100 ppm active compound, protective, evaluation 2 days after inoculation
In short: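 Young bean plants sprayed at the stated rate with compound in acetone/dimethylacetamide plus alkylaryl polyglycol ether emulsifier, diluted in water. Once dry, each leaf got 2 agar pieces colonized by Botrytis cinerea; kept dark at about 20° C., 100% humidity. Infected area scored after 2 days; 0% = control, 100% = no infection.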

Fusarium graminearum [1] = format: in vivo; details: in vivo
[2] = tested on: Fusarium nivale (var. majus); assay: Fusarium nivale (var. majus) test (wheat)/protective; format: in vivo; details: 1000 ppm active compound, protective, evaluation 5 days after inoculation
In short: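 Protective spray of young wheat plants at the stated rate (compound in dimethylacetamide with emulsifier, diluted in water), then inoculation with Fusarium nivale spores once dry. Plants kept at 10 °C and 100% humidity; scored 5 days after inoculation as % efficacy, where 0% equals untreated control and 100% means no infection.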

Leptosphaeria nodorum = Leptosphaeria nodorum test (wheat)/protective; format: in vivo; details: in vivo
In short: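 Young wheat plants were sprayed protectively, then inoculated 1 day later with L. nodorum spores and held 48 h at 100% humidity and 22° C. They were then kept in a greenhouse at 90% humidity and 22° C. Efficacy was scored 7-9 days post-inoculation, where 0% equals control and 100% means no infection.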

Phytophthora infestans = format: in vivo; details: in vivo
Puccinia triticina = Puccinia triticina test (wheat)/protective; format: in vivo; details: in vivo
In short: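 Protective test: young wheat plants sprayed with compound (dimethylacetamide/alkylaryl polyglycol ether formulation, water-diluted) at stated rate, then inoculated with Puccinia triticina spores once dry; 48 h at 20 °C, 100% RH, then greenhouse ~20 °C, ~80% RH. Efficacy scored 8 days post-inoculation, 0% = control, 100% = no infection.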

Pyrenophora teres = Pyrenophora teres test (barley)/protective; format: in vivo; details: in vivo
In short: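 Protective test: young barley plants sprayed at the stated rate with compound in DMF/alkylaryl polyglycol ether diluted with water, inoculated with P. teres spores 1 day later, kept 48 h at 100% rel. humidity and 22° C., then greenhouse at 80% and 20° C. Efficacy scored 7-9 days post-inoculation (0% = control, 100% = no infection).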

Sphaerotheca fuliginea = assay: Sphaerotheca test (cucumber)/protective; format: in vivo; details: in vivo
In short: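 Protective test: young cucumber plants sprayed with compound (DMF/alkylaryl polyglycol ether concentrate diluted in water) at the stated rate, inoculated with S. fuliginea spores 1 day later, then kept in greenhouse at 23 °C, 70% RH. Efficacy scored 7 days post-inoculation; 0% equals untreated control, 100% means no infection.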

Uromyces appendiculatus = assay: Uromyces test (bean)/protective; format: in vivo; details: in vivo
In short: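 Young bean plants sprayed with compound formulated in acetone/dimethylacetamide with emulsifier, inoculated with Uromyces appendiculatus spores after drying, held 1 day at ~20 °C and 100% humidity, then greenhouse ~21 °C, ~90% humidity. Efficacy scored 10 days post-inoculation, 0% = untreated control, 100% = no infection.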

Venturia inaequalis = assay: Venturia test (apple)/protective; format: in vivo; details: 100 ppm active compound, protective, evaluation 10 days after inoculation
In short: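 Young apple plants sprayed protectively with compound (in acetone/dimethylacetamide with alkylaryl polyglycol ether, diluted in water) at the stated rate, then inoculated with V. inaequalis conidia once dry. Held 1 day at ~20° C, 100% humidity, then greenhouse ~21° C, ~90% humidity; efficacy scored 10 days post-inoculation (0% = control, 100% = no infection).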

Pyricularia oryzae = details: in vivo
Rhizoctonia solani = assay: Rhizoctonia test (rice)/protective; format: in vivo; details: 250 ppm active compound, protective, evaluation 4 days after inoculation
Protocol: Solvent: 28.5 parts by weight of acetone
Emulsifier: 1.5 parts by weight of alkylaryl polyglycol ether
To produce a suitable preparation of active compound, 1 part by weight of active compound is mixed with the stated amount of solvent, and the concentrate is diluted with water and the stated amount of emulsifier to the desired concentration.
To test for protective activity, young rice plants are sprayed with the active compound preparation at the stated application rate. 1 day after the treatment, the plants are inoculated with hyphae of Rhizoctonia solani. The plants are then placed in a greenhouse at 100% relative atmospheric humidity and 25° C.
Evaluation is carried out 4 days after the inoculation. 0% means an efficacy which corresponds to that of the control, whereas an efficacy of 100% means that no infection is observed.

Cochliobolus miyabeanus = assay: Cochliobolus test (rice)/protective; format: in vivo; details: 250 ppm active compound, protective, evaluation 4 days after inoculation
DON/AcDON production = assay: microbe, parasite or virus in culture; format: cell-based, Fusarium graminearum; details: 7 days at 28° C.
Fusarium graminearum [3] = assay: microbe, parasite or virus in culture; format: cell-based; details: 50 μM
Septoria tritici = Septoria tritici test (wheat)/protective; format: in vivo; details: in vivo
Protocol: Solvent: 49 parts by weight of N,N-dimethylacetamide
Emulsifier: 1 part by weight of alkylaryl polyglycol ether
To produce a suitable preparation of active compound, 1 part by weight of active compound is mixed with the stated amount of solvent and emulsifier, and the concentrate is diluted with water to the desired concentration.
To test for protective activity, young plants are sprayed with the active compound preparation at the stated application rate. After the spray coating has dried on, the plants are sprayed with a spore suspension of Septoria tritici. The plants remain in an incubation cabin at 20° C. and 100% relative atmospheric humidity for 48 hours. The plants are then placed under a translucent hood at 15° C. and 100% relative atmospheric humidity for a further 60 hours.
The plants are placed in a greenhouse at a temperature of about 15° C. and a relative atmospheric humidity of 80%.
Evaluation is carried out 21 days after the inoculation. 0% means an efficacy which corresponds to that of the control, whereas an efficacy of 100% means that no infection is observed.

Gibberella zeae = details: in vivo

Row | Compound | efficacy in % (Alternaria solani) | efficacy in % (Botrytis cinerea) | efficacy in % (Fusarium graminearum [1]) | efficacy in % [2] | efficacy in % (Leptosphaeria nodorum) | efficacy in % (Phytophthora infestans) | efficacy in % (Puccinia triticina) | efficacy in % (Pyrenophora teres) | efficacy in % (Sphaerotheca fuliginea) | efficacy in % (Uromyces appendiculatus) | efficacy in % (Venturia inaequalis) | efficacy in % (Pyricularia oryzae) | efficacy in % (Rhizoctonia solani) | efficacy in % (Cochliobolus miyabeanus) | % inhibition of DON/AcDON at 50 μM (DON/AcDON production) | % inhibition of the fungal growth of Fusarium graminearum at 50 μM (Fusarium graminearum [3]) | efficacy in % (Septoria tritici) | efficacy in % (Gibberella zeae)
1 | O=C(Nc1cc(-c2c(-c3ccc(F)cc3)nn3c2CCCC3)ccn1)C1CC1 [Example 20] | 100% | 98% | 94% | 100% | 95% | 100% | 100% | 100% | 100% | 94% | 99% | 92% | 100% | 96% | 100% | 95% | – | –
2 | O=C(Cc1ccccc1)Nc1cc(-c2c(-c3ccc(F)cc3)nn3c2CCCC3)ccn1 [Example 34] | 100% | 99% | 100% | 100% | 95% | 95% | 94% | 94% | 100% | 95% | 95% | 95% | 85% | 90% | 99% | 98% | 93% | 80%
3 | CC(C)CC(=O)Nc1cc(-c2c(-c3ccc(F)cc3)nn3c2CCCC3)ccn1 [Example 30] | 100% | 100% | 88% | 86% | 90% | 80% | 88% | 100% | 95% | 95% | 99% | 94% | 100% | 96% | 99% | 88% | 100% | –
4 | CC(C)CC(=O)Nc1cc(-c2c(-c3ccccc3)nn3c2CCCC3)ccn1 [Example 31] | 94% | 90% | 100% | 100% | 90% | 80% | 94% | 100% | 95% | 94% | 100% | 98% | 100% | 95% | 99% | 97% | 100% | 80%
5 | CC(C)C(=O)Nc1cc(-c2c(-c3ccccc3)nn3c2CCCC3)ccn1 [Example 29] | 100% | 100% | 94% | 86% | 90% | 90% | 94% | 100% | 83% | 94% | 95% | 95% | 100% | 95% | 99% | 100% | 71% | 80%
6 | CC(=O)Nc1cc(-c2c(-c3ccccc3)nn3c2CCCC3)ccn1 [Example 19] | 100% | 99% | 100% | 100% | 95% | 100% | 100% and 95% | 100% | 98% | 94% | 93% | 92% | 100% | 96% | 100% | 100% | 100% | –
7 | O=C(Nc1cc(-c2c(-c3ccccc3)nn3c2CCCC3)ccn1)C1CC1 [Example 21] | 100% | 98% | 100% | 100% | 95% | 90% | 95% | 100% | 100% | 94% | 99% | 98% | 100% | 96% | 100% | 97% | 100% | –
8 | CC(C)C(=O)Nc1cc(-c2c(-c3ccc(F)cc3)nn3c2CCCC3)ccn1 [Example 28] | 100% | 95% | 100% | 100% | 90% | 95% | 100% | 100% | 100% | 95% | 100% | 90% | 100% | 95% | 99% | 100% | 100% | 85%

From US8507472B2 (priority 2010, dated 2013)
